Results reported in US12115157B2, “3-phenoxyazetidin-1-yl-heteroaryl pyrrolidine derivatives and the use thereof as medicament” (Boehringer Ingelheim International GmbH, priority 2021, dated 2024).
pEC50, pIC50: −log10 of the molar value.

Columns and labels:
hERG channel = hERG channel (Homo sapiens (Human), UniProt Q12809); test: hERG channel assay (whole-cell patch clamp); type: cell-based; conditions: HEK293 cells stably transfected with hERG cDNA
From the text: hERG Channel inhibition of compounds of the present invention was investigated as follows:
HEK (human embryonic kidney) 293 cells were stably transfected with hERG cDNA. Cells determined for use in patch clamp experiments were cultivated without antibiotic.
Cells were superfused with a bath solution containing (mM): NaCl (137), KCl (4.0), MgCl2 (1.0), CaCl2(1.8), Glucose (10), HEPES (10), pH 7.4 with NaOH. Patch pipettes were made from borosilicate glass tubing using a pipette and filled with pipette solution containing (mM): K-aspartate (130), MgCl2(5.0), EGTA (5.0), K2ATP (4.0), HEPES (10.0), pH 7.2 with KOH. Resistance of the microelectrodes was typically in the range between 2 MΩ and 5 MΩ.
Membrane currents were recorded using an EPC-10 patch clamp amplifier (HEKA Electronics, Lambrecht, FRG) and PatchMaster software (HEKA). hERG-mediated membrane currents were recorded at typically 28° C., using the whole-cell configuration of the patch-clamp technique. Transfected HEK293 cells were clamped at a holding potential of −60 mV and hERG-mediated inactivating tail currents were elicited using a pulse pattern with fixed amplitudes (activation/inactivation: 40 mV for 2000 ms; recovery: 120 mV for 2 ms; ramp to 40 mV in 2 ms; inactivating tail current: 40 mV for 50 ms) repeated at 15 s intervals. During each inter-pulse interval 4 pulses scaled down by a factor of 0.2 were recorded for a P/n leak subtraction procedure. Rs compensation was employed up to a level that safely allows recording devoid of ringing. The remaining uncompensated Rs was recorded as well as actual temperature and holding current.
The concentrations of the test item were applied sequentially on each of the different cells investigated. A steady state level of baseline current was measured for at least 5 sweeps prior to the application of the first test article concentration. The test item was dissolved in DMSO to yield a stock solution of 1000-fold the highest final concentration. This stock was diluted further in DMSO to stock solutions of 1000-fold the remaining final concentrations. Final dilutions in extracellular buffer were prepared freshly from these stocks by a 1:1000 dilution step each before starting the experiments.
Peak current amplitudes were measured 3 ms after the ramp to +40 mV. For baseline and each concentration, the peak currents of the three last sweeps before application of the next concentration were averaged. Residual currents (I/I0) were calculated for each cell as the fraction of actual average peak current and average baseline peak current. Current inhibition was expressed as […]. Current inhibition for all cells was reported as mean ±SD. If possible, from mean current inhibition data the IC50 was estimated based on the Hill equation using a least squares procedure.

[1] = tested on: human recombinant CYP enzymes (1A1, 1A2, 2B6, 2C8, 2C9, 2C19, 2D6, 3A4, 3A5); test: CYP phenotyping with human recombinant CYP enzymes (Supersomes); type: in vitro ADME; design: key: yes: Metabolite is formed in presence of human recombinant CYP-enzymes; Metabolite is not detected in presence of human recombinant CYP-enzymes as indication of a non-CYP-dependent pathway
Procedure: In vitro metabolite profiling to evaluate the involvement of non-CYP-enzyme-mediated metabolic pathways such as hydrolysis in addition to CYP-mediated pathways is based on the semiquantitative analysis of the formation of prototypic metabolites in incubations with liver microsomes (with and without beta-nicotinamide adenine dinucleotide phosphate, NADPH), primary human hepatocytes (with and without the pan-CYP inhibitor proadifen) and recombinant CYP enzymes.
The involvement of hydrolases, such as carboxylesterases or arylacetamide deacetylase, is assumed if the metabolite resulting from amide hydrolysis of a compound of the present invention of general formula (I) wherein R^6 is an acetyl-group, i.e. the deacetylated compound thereof, is not formed in presence of the relevant drug-metabolizing human recombinant CYP enzymes but is formed in human liver microsomes in the absence of NADPH. Hydrolases are highly abundant in liver microsomes; however, in contrast to CYP-related metabolic processes, the catalytic activity of hydrolases is independent of NADPH. As such, the deacetylated metabolite would be formed in incubations of human liver microsomes lacking NADPH.
A phenotyping assay was performed to identify the CYP enzymes responsible for metabolic conversion of the compound. The metabolic degradation of the test compound and the assessment of formation of metabolites was performed using Supersomes (human CYP expressed in baculovirus infected insect cells) and human liver microsomes, respectively. Compounds were tested specifically for their conversion by CYP isoenzymes 1A1, 1A2, 2B6, 2C8, 2C9, 2C19, 2D6, 3A4 and 3A5. […]
Following a short preincubation period for 15 min at 37° C., the reaction was initiated by addition of NADPH (reduced form, 1 mM). […] Samples were analyzed for formation of putative metabolites by means of by liquid chromatography-high resolution mass spectrometry.

human GPR52 = human GPR52 (Homo sapiens (Human), UniProt Q9Y2T5); test: HTRF assay for direct cAMP measurement; type: cell-based; conditions: CHO-K1 cells stably expressing recombinant human GPR52, mean EC50
human GPR52, sequence (Q9Y2T5 whole entry): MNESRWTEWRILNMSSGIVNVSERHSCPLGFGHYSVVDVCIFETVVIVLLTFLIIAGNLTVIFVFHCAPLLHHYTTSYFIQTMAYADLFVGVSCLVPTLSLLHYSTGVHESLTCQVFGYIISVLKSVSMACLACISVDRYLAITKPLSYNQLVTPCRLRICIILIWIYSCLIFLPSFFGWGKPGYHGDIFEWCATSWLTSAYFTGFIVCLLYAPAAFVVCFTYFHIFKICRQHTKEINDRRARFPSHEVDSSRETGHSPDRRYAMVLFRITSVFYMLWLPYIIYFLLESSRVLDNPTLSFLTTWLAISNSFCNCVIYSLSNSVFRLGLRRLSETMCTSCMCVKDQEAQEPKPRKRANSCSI
Procedure: HTRF cAMP assays were performed using commercially available assay kits according to the manufacturer's instructions (cAMP Dynamic 2 Assay Kit; #62AM4PEJ, Cisbio Bioassays, Bedford, MA). An aliquot of CHO-K1 cells stably expressing recombinant human GPR52 was thawed and resuspended in cell buffer (1×PBS (w/o Ca^2+/Mg^2+)) at a density of 4×10^5 cells per mL. Test compounds were solubilized in DMSO to 10 mM stock solutions and serially diluted in DMSO using 6-fold dilutions to generate 8-point dose response curves. These serially diluted samples were then diluted 1:50 in compound dilution buffer (1×PBS (w/o Ca^2+/Mg^2+) containing 0.5 mM IBMX, 0.1% BSA) to achieve a 4× stock. The diluted compounds were transferred (5 μL per well) in duplicate to the 384-well assay plate (Optiplate #6007290, PerkinElmer, Waltham, MA). Both a positive (reference compound) and negative (non-stimulated vehicle) control was included in each assay run in column 23. The cell suspension was subsequently dispensed into the 384-well assay plates at 15 μL per well (6000 cells) such that the compound was diluted to 1×. […] After a one-hour incubation at room temperature, 10 μL of cAMP D2 reagent followed by 10 μL of cryptate reagent (provided in the Cisbio kit) was added to each well. Plates were then incubated at room temperature for one hour prior to reading. Time-resolved fluorescence measurements were collected on an EnVision® HTRF plate reader (PerkinElmer, Waltham, MA). Counts from the plate reader were fit to the cAMP standard curve included on each plate to determine the amount of cAMP in each test well. The % control was calculated based on the […]. Dose-response curves were generated from the cAMP data and analyzed using a nonlinear least squares curve-fitting program to obtain EC50 values.

hERG channel, sequence (Q12809 whole entry): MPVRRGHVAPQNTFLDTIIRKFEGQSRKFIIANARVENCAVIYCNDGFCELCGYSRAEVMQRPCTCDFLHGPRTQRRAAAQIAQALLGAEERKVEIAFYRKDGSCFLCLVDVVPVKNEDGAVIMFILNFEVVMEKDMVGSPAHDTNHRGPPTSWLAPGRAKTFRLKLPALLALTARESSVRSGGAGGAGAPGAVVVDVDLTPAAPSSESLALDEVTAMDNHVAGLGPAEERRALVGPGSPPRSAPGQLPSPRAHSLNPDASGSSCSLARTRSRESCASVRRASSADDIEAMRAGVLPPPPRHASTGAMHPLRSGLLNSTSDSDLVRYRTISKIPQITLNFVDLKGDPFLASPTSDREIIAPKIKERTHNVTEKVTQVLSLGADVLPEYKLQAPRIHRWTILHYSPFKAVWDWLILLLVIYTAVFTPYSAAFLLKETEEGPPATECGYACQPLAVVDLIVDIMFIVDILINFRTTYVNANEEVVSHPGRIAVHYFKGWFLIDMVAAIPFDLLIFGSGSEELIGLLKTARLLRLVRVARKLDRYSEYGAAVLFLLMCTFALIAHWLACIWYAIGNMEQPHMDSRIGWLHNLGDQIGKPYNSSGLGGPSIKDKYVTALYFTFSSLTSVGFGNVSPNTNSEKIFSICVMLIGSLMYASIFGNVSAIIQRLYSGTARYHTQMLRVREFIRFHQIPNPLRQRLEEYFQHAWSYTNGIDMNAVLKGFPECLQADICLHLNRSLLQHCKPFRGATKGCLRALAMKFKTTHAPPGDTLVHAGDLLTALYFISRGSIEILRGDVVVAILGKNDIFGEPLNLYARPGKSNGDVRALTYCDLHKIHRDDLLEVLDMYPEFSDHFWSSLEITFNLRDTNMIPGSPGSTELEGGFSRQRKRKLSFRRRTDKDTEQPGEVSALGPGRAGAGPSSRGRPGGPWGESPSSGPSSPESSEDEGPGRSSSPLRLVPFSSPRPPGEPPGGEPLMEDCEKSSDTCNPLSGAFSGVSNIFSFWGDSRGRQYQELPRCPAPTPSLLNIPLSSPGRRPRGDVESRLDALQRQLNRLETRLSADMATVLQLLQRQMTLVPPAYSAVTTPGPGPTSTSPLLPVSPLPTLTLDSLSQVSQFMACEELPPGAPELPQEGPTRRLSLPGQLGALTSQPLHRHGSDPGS

CC(=O)N1C[C@H](NC(=O)c2nccnc2N2CC(Oc3cc(F)c(F)c(F)c3)C2)C(F)(F)C1 [Example 11b]
pIC50 (hERG channel): < 5.00
Specific formation in human recombinant CYP enzymes ([1]; secondary metabolite m443 (of m429)): no

CC(=O)N1C[C@H](NC(=O)c2nccnc2N2CC(Oc3cc(F)cc(F)c3)C2)C(F)(F)C1 [Example 10a]
pIC50 (hERG channel): < 5.00
Specific formation in human recombinant CYP enzymes ([1]; secondary metabolite m405 (of m411)): no^5
Specific formation in human recombinant CYP enzymes ([1]; secondary metabolite m425 (of m411)): no^5
pEC50 (human GPR52): 7.85

CC(=O)N1CC[C@@H](NC(=O)c2nsnc2N2CC(Oc3cc(F)cc(F)c3)C2)C1 [Example 15a]
pIC50 (hERG channel): < 5.00
pEC50 (human GPR52): 7.70
